Peptide text beside a SMILES is read from it.
System: APEX2-Gal8
Experiment: APEX2-Gal8 proximity biotinylation LC/MS/MS proteomic analysis in HEK293T cells
Format: cell-based
Conditions: 100 μM GPN 1 h vs full medium
Protocol: HEK293T cells transfected with pJJiaDEST-APEX2 or pJJiaDEST-APEX2-Gal8 were incubated with 100 μM GPN (Cayman Chemicals) in full medium for 1 h (confluence of cells remained at 70-80%). Cells were next incubated in 500 μM biotin-phenol (AdipoGen) in full medium for the last 30 min of GPN incubation. A 1 min pulse with 1 mM H2O2 at room temperature was stopped with quenching buffer (10 mM sodium ascorbate, 10 mM sodium azide and 5 mM Trolox in Dulbecco's Phosphate Buffered Saline (DPBS)). All samples were washed twice with quenching buffer, and twice with DPBS.
For LC-MS/MS analysis, cell pellets were lysed in 500 μL ice-cold lysis buffer (6 M urea, 0.3 M Nacl, 1 mM EDTA, 1 mM EGTA, 10 mM sodium ascorbate, 10 mM sodium azide, 5 mM Trolox, 1% glycerol and 25 mm Tris/HCl [PH 7.5]) for 30 min by gentle pipetting. Lysates were clarified by centrifugation and protein concentrations determined as above. Streptavidin-coated magnetic beads (Pierce) were washed with lysis buffer. 3 mg of each sample was mixed with 100 μL of streptavidin bead. The suspensions were gently rotated at 4° C. for overnight to bind biotinylated proteins. The flowthrough after enrichment was removed and the beads were washed in sequence with 1 mL IP buffer (150 mM NaCl, 10 mM Tris-HCl pH8.0, 1 mM EDTA, 1 mM EGTA, 1% Triton X-100) twice; 1 mL 1M KCl; 1 mL of 50 mM Na2CO3; 1 mL 2M Urea in 20 mM 1Tris HCl pH8; 1 mL IP buffer. Biotinylated proteins were eluted, 5-10% of the sample processed for Western Blot and 90-95% of the sample processed for mass spectrometry.
Digested peptides were analyzed by LC-MS/MS on a Thermo Scientific Q Exactive Plus Orbitrap Mass spectrometer in conjunction Proxeon Easy-nLC II HPLC (Thermo Scientific) and Proxeon nanospray source. […]
Tandem mass spectra were extracted by Proteome Discoverer version 2.2. […] All MS/MS samples were analyzed using Sequest-HT (XCorr Only)(Thermo Fisher Scientific, San Jose, Calif., USA; in Proteome Discoverer 2.2.0.388). […] Precursor intensity was determined using Proteome Discoverer 2.2 using the Minor Feature detector with the default options. […]

NCC(=O)N[C@@H](Cc1ccccc1)C(=O)Nc1ccc2ccccc2c1 [GPN, glycyl-L-phenylalanine 2-naphththylamide] (HELM PEPTIDE1{G.F.[c1ccc2cc(N[*:1])ccc2c1]}$$$$V2.0)
> 100 fold: decrease in spectral counts of mTOR proximal to APEX2-Gal8 | increase in MS signal intensity of peptide precursor ions of LAMTOR1/p18, SLC38A9 and RagA/B | increase in spectral counts of SLC38A9 and RagA/B proximal to APEX2-Gal8

Reference: patent US20210069295A1, “GALECTINS CONTROL MTOR IN RESPONSE TO ENDOMEMBRANE DAMAGE AND PROVIDE A MECHANISM AND TARGET FOR THE TREATMENT OF AUTOPHAGY-RELATED DISEASES” (STC. UNM, priority 2017, published 2021)
